Results taken from article PMC10456528, “Purification and Molecular Docking Study on the Angiotensin I-Converting Enzyme (ACE)-Inhibitory Peptide Isolated from Hydrolysates of the Deep-Sea Mussel Gigantidas vrijenhoeki” (Marine Drugs, 2023).
Ends that are not written are not given here. Peptide text beside a SMILES is read from it.

Key:
[1] = target: T1, angiotensin I-converting enzyme (ACE) (Homo sapiens, UniProt P12821); test: ACE inhibitory activity assay (Dojindo ACE Kit); assay type: biochemical; set-up: purchased Dojindo Laboratories, Kumamoto, Japan; details: synthetic peptides with the sequences identified in <1 kDa fraction; triplicate experiments
Method: ACE inhibitory activity was measured using the Dojindo ACE Kit-WET kit (Dojindo Laboratories, Kumamoto, Japan), according to the manufacturer’s instructions. The ACE-inhibitory activity was calculated as follows: ACE inhibitory activity (%)=Acontrol−Asample/Acontrol−Ablank×100% where Acontrol is the absorbance of the positive control, Ablank is the absorbance of the blank containing distilled water, and Asample is the absorbance of the sample. The IC50 value was determined as the concentration of inhibitor required to inhibit 50% of the ACE activity.
Target sequence in this assay (P12821 30-1306, species assumed): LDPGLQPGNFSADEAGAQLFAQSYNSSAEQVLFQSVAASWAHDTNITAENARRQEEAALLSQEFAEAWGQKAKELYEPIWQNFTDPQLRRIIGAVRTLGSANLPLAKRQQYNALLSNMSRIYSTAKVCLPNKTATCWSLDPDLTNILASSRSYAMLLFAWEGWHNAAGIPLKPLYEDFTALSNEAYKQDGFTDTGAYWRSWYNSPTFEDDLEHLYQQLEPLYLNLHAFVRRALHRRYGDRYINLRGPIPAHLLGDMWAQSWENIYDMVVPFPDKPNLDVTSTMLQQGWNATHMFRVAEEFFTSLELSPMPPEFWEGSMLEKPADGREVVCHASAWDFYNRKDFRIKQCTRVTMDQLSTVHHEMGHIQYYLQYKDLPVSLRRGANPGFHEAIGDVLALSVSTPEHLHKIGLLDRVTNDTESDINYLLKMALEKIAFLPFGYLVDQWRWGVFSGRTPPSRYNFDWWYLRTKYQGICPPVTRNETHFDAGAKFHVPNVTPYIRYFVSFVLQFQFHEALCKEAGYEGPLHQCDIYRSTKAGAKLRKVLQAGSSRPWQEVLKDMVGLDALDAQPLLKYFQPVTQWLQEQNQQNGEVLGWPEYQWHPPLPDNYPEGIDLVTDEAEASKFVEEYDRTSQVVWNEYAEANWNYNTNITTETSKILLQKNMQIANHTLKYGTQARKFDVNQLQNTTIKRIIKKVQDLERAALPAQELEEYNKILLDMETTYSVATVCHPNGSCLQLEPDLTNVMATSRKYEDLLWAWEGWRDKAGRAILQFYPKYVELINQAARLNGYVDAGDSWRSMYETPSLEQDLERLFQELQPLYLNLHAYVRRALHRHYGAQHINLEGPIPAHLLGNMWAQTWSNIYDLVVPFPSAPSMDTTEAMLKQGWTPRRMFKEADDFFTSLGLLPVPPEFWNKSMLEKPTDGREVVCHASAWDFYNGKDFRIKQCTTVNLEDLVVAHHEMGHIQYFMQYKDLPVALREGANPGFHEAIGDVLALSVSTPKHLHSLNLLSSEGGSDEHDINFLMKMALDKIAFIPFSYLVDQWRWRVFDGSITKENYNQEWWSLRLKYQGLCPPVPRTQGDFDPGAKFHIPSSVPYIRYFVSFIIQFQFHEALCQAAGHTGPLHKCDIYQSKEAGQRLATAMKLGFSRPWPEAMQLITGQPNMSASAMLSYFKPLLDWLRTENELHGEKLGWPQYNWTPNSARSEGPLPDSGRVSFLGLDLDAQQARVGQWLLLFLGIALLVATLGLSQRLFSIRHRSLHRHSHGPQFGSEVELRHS

[2] = target: T1, angiotensin I-converting enzyme (ACE)
Target sequence in this assay (P12821 30-1256): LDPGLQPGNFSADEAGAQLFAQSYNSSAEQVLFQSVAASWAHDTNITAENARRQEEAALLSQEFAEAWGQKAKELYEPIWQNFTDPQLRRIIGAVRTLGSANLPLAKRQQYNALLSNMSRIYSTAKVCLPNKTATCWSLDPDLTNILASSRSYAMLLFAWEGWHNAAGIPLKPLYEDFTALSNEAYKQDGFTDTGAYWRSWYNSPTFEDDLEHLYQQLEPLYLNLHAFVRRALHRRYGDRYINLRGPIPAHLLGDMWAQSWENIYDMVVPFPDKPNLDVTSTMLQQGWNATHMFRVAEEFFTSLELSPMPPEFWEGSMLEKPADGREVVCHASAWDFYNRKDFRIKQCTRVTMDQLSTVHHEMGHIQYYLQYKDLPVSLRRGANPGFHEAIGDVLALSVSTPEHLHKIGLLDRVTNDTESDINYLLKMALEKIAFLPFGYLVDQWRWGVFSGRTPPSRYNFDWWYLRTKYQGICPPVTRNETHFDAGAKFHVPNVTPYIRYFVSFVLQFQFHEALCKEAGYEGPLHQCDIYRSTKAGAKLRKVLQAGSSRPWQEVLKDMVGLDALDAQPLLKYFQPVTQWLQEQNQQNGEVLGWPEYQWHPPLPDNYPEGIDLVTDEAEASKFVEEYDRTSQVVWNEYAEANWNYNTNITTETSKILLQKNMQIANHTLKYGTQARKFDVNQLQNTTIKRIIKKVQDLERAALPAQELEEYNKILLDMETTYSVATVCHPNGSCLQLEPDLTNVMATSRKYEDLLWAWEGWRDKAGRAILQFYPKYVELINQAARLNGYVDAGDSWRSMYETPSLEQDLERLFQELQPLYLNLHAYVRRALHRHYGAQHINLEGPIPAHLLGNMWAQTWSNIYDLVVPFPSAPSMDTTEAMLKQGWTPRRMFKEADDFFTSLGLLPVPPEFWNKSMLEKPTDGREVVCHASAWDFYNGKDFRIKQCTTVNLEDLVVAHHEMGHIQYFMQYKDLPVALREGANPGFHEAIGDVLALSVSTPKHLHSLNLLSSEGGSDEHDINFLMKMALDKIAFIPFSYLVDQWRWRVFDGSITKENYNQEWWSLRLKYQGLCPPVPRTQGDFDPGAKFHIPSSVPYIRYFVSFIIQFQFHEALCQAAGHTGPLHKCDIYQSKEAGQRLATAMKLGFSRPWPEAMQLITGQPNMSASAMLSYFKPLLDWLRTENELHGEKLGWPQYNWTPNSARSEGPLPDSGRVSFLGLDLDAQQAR

| IC50 [1] [nM] | IC50 of ACE inhibitory activity (enzyme activity, Dojindo ACE kit, synthetic peptide) [2] [nM] | Molecule |
| --- | --- | --- |
| 162 ± 2 | – | CC(C)C[C@H](NC(=O)[C@@H](NC(=O)[C@@H](N)CCCCN)C(C)C)C(=O)N[C@@H](Cc1c[nH]cn1)C(=O)O [GVP-2, KVLH] (H-KVLH-OH) |
| 67 ± 5 | – | CC(C)C[C@H](N)C(=O)N[C@H](C(=O)N[C@@H](CCCNC(=N)N)C(=O)O)C(C)C [GVP-4, LVR] (H-Leu-Val-Arg-OH; N-terminus and C-terminus assumed) |
| 795 ± 15 | – | YALPHAL [GVP-11, YALPHAL] |
| 513 ± 2 | – | PGLADMR [GVP-8, PGLADMR] |
| 292 ± 13 | – | CC(C)C[C@H](NC(=O)[C@H](Cc1c[nH]cn1)NC(=O)[C@@H](NC(=O)[C@@H](N)CCCCN)C(C)C)C(=O)O [GVP-3, KVHL] (H-KVHL-OH) |
| 1390 ± 11 | – | CC(C)C[C@H](NC(=O)[C@H](CO)NC(=O)[C@H](CC(N)=O)NC(=O)[C@@H](N)CC(C)C)C(=O)O [GVP-6, LNSL] (H-LNSL-OH; N-terminus and C-terminus assumed) |
| 24 ± 17 | – | ALRPKF [GVP-7, ALRPKF] |
| 7 ± 2 | – | KLLWNGKM [GVP-10, KLLWNGKM] |
| 435 ± 7 | – | CC(C)C[C@H](NC(=O)[C@@H](N)CC(C)C)C(=O)N[C@@H](CCCNC(=N)N)C(=O)O [GVP-9, LLR] |
| 582 ± 8 | – | PSLVG [GVP-5, PSLVG] |
| 2960 ± 165 | – | CC(C)C[C@H](NC(=O)[C@@H](N)CCCCN)C(=O)N[C@@H](CCC(N)=O)C(=O)N[C@@H](CCC(=O)O)C(=O)O [GVP-1, KLQE] (H-KLQE-OH) |
| – | 1390 | LNSL [G. vrijenhoeki peptide (GVP)-6] |
| – | 795 | YALPHAL [G. vrijenhoeki peptide (GVP)-11] |
| – | 2960 | KLQE [G. vrijenhoeki peptide (GVP)-1] |
| – | 513 | PGLADMR [G. vrijenhoeki peptide (GVP)-8] |
| – | 162 | KVLH [G. vrijenhoeki peptide (GVP)-2] |
| – | 24 | ALRPKF [G. vrijenhoeki peptide (GVP)-7] |
| – | 292 | KVHL [G. vrijenhoeki peptide (GVP)-3] |
| – | 7 | KLLWNGKM [G. vrijenhoeki peptide (GVP)-10] |
| – | 582 | PSLVG [G. vrijenhoeki peptide (GVP)-5] |
